Results: the NIST ThermoML archive (doi:10.1021/je4005323)

Settings: Liquid; for speed of sound: Pulse-echo method; for mass density: Vibrating tube method

CCCCC/C=C\C/C=C\CCCCCCCC(=O)OC [methyl (Z,Z)-9,12-octadecadienate]
Settings	mass density [kg/m3]	speed of sound [m/s]
283.15 K, 101.3 kPa	–	1455
283.15 K, 10000 kPa	–	1498.2
283.15 K, 20000 kPa	–	1539
283.15 K, 30000 kPa	–	1577.6
283.15 K, 40000 kPa	–	1614.3
283.15 K, 50000 kPa	–	1649.2
283.15 K, 60000 kPa	–	1682.6
283.15 K, 70000 kPa	–	1714
283.15 K, 80000 kPa	–	1745.2
283.15 K, 90000 kPa	–	1774.4
283.15 K, 100000 kPa	–	1803.2
283.15 K, 110000 kPa	–	1830.9
283.15 K, 120000 kPa	–	1857.8
283.15 K, 130000 kPa	–	1884.6
283.15 K, 140000 kPa	–	1909.9
283.15 K, 150000 kPa	–	1934.7
293.15 K, 101.3 kPa	885.2	–
293.15 K, 10000 kPa	891.2	–
293.15 K, 20000 kPa	896.6	–
293.15 K, 30000 kPa	901.8	–
293.15 K, 40000 kPa	906.8	–
293.15 K, 50000 kPa	911.4	–
293.15 K, 60000 kPa	915.9	–
293.15 K, 70000 kPa	920.2	–
293.15 K, 80000 kPa	924	–
293.15 K, 90000 kPa	928.2	–
293.15 K, 100000 kPa	931.3	–
303.15 K, 101.3 kPa	877.7	1382.9
303.15 K, 10000 kPa	884	1428.9
303.15 K, 20000 kPa	889.6	1472.2
303.15 K, 30000 kPa	895	1513.6
303.15 K, 40000 kPa	900.1	1552
303.15 K, 50000 kPa	905	1588.6
303.15 K, 60000 kPa	909.5	1623.5
303.15 K, 70000 kPa	914	1656.3
303.15 K, 80000 kPa	918.1	1688.3
303.15 K, 90000 kPa	922.2	1719.1
303.15 K, 100000 kPa	926.2	1748.7
303.15 K, 110000 kPa	–	1776.9
303.15 K, 120000 kPa	–	1804.4
303.15 K, 130000 kPa	–	1831.3
303.15 K, 140000 kPa	–	1857
303.15 K, 150000 kPa	–	1883.6
303.15 K, 170000 kPa	–	1932.3
303.15 K, 190000 kPa	–	1979.7
303.15 K, 210000 kPa	–	2023.6
313.15 K, 101.3 kPa	870.9	–
313.15 K, 10000 kPa	877.1	–
313.15 K, 20000 kPa	882.9	–
313.15 K, 30000 kPa	888.5	–
313.15 K, 40000 kPa	893.7	–
313.15 K, 50000 kPa	898.8	–
313.15 K, 60000 kPa	903.3	–
313.15 K, 70000 kPa	908	–
313.15 K, 80000 kPa	912.2	–
313.15 K, 90000 kPa	916.6	–
313.15 K, 100000 kPa	920.6	–
323.15 K, 101.3 kPa	863.7	1312.6
323.15 K, 10000 kPa	870.1	1361.4
323.15 K, 20000 kPa	876.3	1407.2
323.15 K, 30000 kPa	882	1450.8
323.15 K, 40000 kPa	887.3	1491.3
323.15 K, 50000 kPa	892.4	1530.3
323.15 K, 60000 kPa	897.4	1567.2
323.15 K, 70000 kPa	902.1	1601.4
323.15 K, 80000 kPa	906.7	1634.3
323.15 K, 90000 kPa	910.9	1666.2
323.15 K, 100000 kPa	915.1	1697.2
323.15 K, 110000 kPa	–	1726.4
323.15 K, 120000 kPa	–	1754.6
323.15 K, 130000 kPa	–	1782.4
323.15 K, 140000 kPa	–	1808.7
323.15 K, 150000 kPa	–	1834.7
323.15 K, 170000 kPa	–	1884.5
323.15 K, 190000 kPa	–	1931.7
323.15 K, 210000 kPa	–	1977.6
333.15 K, 101.3 kPa	856.3	–
333.15 K, 10000 kPa	863	–
333.15 K, 20000 kPa	869.5	–
333.15 K, 30000 kPa	875.4	–
333.15 K, 40000 kPa	881.3	–
333.15 K, 50000 kPa	886.5	–
333.15 K, 60000 kPa	891.5	–
333.15 K, 70000 kPa	896.4	–
333.15 K, 80000 kPa	900.9	–
333.15 K, 90000 kPa	905.4	–
333.15 K, 100000 kPa	910	–
343.15 K, 101.3 kPa	849.1	1245.1
343.15 K, 10000 kPa	856.2	1297.9
343.15 K, 20000 kPa	863	1346.9
343.15 K, 30000 kPa	869.3	1392.6
343.15 K, 40000 kPa	875.1	1435.4
343.15 K, 50000 kPa	880.8	1475.1
343.15 K, 60000 kPa	885.9	1513.2
343.15 K, 70000 kPa	890.9	1549.4
343.15 K, 80000 kPa	895.7	1583.9
343.15 K, 90000 kPa	900.3	1616.7
343.15 K, 100000 kPa	904.7	1648.6
343.15 K, 110000 kPa	–	1679
343.15 K, 120000 kPa	–	1708.5
343.15 K, 130000 kPa	–	1736.1
343.15 K, 140000 kPa	–	1763.4
343.15 K, 150000 kPa	–	1789.7
343.15 K, 170000 kPa	–	1840.9
343.15 K, 190000 kPa	–	1889.3
343.15 K, 210000 kPa	–	1935.4
353.15 K, 101.3 kPa	841.8	–
353.15 K, 10000 kPa	849.3	–
353.15 K, 20000 kPa	856.2	–
353.15 K, 30000 kPa	862.8	–
353.15 K, 40000 kPa	868.9	–
353.15 K, 50000 kPa	874.6	–
353.15 K, 60000 kPa	879.9	–
353.15 K, 70000 kPa	885.2	–
353.15 K, 80000 kPa	890	–
353.15 K, 90000 kPa	894.7	–
353.15 K, 100000 kPa	899.3	–
363.15 K, 101.3 kPa	834.7	1180.3
363.15 K, 10000 kPa	842.2	1237
363.15 K, 20000 kPa	849.5	1288.6
363.15 K, 30000 kPa	856.4	1336.6
363.15 K, 40000 kPa	862.6	1381.1
363.15 K, 50000 kPa	868.4	1422.6
363.15 K, 60000 kPa	873.9	1462.6
363.15 K, 70000 kPa	879.1	1500.2
363.15 K, 80000 kPa	884.1	1536.1
363.15 K, 90000 kPa	889	1570.2
363.15 K, 100000 kPa	893.9	1602.5
363.15 K, 110000 kPa	–	1634
363.15 K, 120000 kPa	–	1663.9
363.15 K, 130000 kPa	–	1693
363.15 K, 140000 kPa	–	1720.3
363.15 K, 150000 kPa	–	1747.4
363.15 K, 170000 kPa	–	1799.1
363.15 K, 190000 kPa	–	1847.3
363.15 K, 210000 kPa	–	1894.7
373.15 K, 101.3 kPa	826.5	–
373.15 K, 10000 kPa	835.3	–
373.15 K, 20000 kPa	842.9	–
373.15 K, 30000 kPa	849.9	–
373.15 K, 40000 kPa	856.4	–
373.15 K, 50000 kPa	862.4	–
373.15 K, 60000 kPa	868.3	–
373.15 K, 70000 kPa	873.9	–
373.15 K, 80000 kPa	879.3	–
373.15 K, 90000 kPa	884.3	–
373.15 K, 100000 kPa	889.1	–
383.15 K, 101.3 kPa	819.3	1118.2
383.15 K, 10000 kPa	828.2	1178.7
383.15 K, 20000 kPa	836.2	1233.8
383.15 K, 30000 kPa	843.5	1283.1
383.15 K, 40000 kPa	850.2	1329
383.15 K, 50000 kPa	856.8	1372.3
383.15 K, 60000 kPa	862.7	1413.2
383.15 K, 70000 kPa	868.2	1452.3
383.15 K, 80000 kPa	873.5	1489.5
383.15 K, 90000 kPa	878.7	1525.2
383.15 K, 100000 kPa	883.9	1558.2
383.15 K, 110000 kPa	–	1590.3
383.15 K, 120000 kPa	–	1621.1
383.15 K, 130000 kPa	–	1650.8
383.15 K, 140000 kPa	–	1679.1
383.15 K, 150000 kPa	–	1707.1
383.15 K, 170000 kPa	–	1759.8
383.15 K, 190000 kPa	–	1808.6
383.15 K, 210000 kPa	–	1855.8
393.15 K, 101.3 kPa	811.9	1088
393.15 K, 10000 kPa	820.9	1150.9
393.15 K, 20000 kPa	829.3	1207.3
393.15 K, 30000 kPa	837	1258.5
393.15 K, 40000 kPa	844.1	1304.7
393.15 K, 50000 kPa	850.5	1348.4
393.15 K, 60000 kPa	856.7	1389.4
393.15 K, 70000 kPa	862.4	1428.7
393.15 K, 80000 kPa	867.9	1466.7
393.15 K, 90000 kPa	873	1503.1
393.15 K, 100000 kPa	878.1	1537.7
393.15 K, 110000 kPa	–	1570
393.15 K, 120000 kPa	–	1600.8
393.15 K, 130000 kPa	–	1630.7
393.15 K, 140000 kPa	–	1660.1
393.15 K, 150000 kPa	–	1688
393.15 K, 170000 kPa	–	1740.7
393.15 K, 190000 kPa	–	1790
393.15 K, 210000 kPa	–	1838.1
